According to publication PMC7915940, “Synthesis, Antitumor and Antibacterial Studies of New Shortened Analogues of (KLAKLAK)2-NH2 and Their Conjugates Containing Unnatural Amino Acids” (Molecules, 2021):
Like-named read-outs stand apart in the source and are kept apart here. Non-standard residues stand in square brackets, D forms with d. Residues, ends and D or L forms follow the SMILES beside them. *: point of attachment. Acetyl(1,8-naphthalimido) = O=C1c2cccc3cccc(c23)C(=O)N1CC(=O)*; Caffeoyl = O=C(/C=C/c1ccc(O)c(O)c1)*; Nle = CCCC[C@H](N)C(=O)O; βAla = NCCC(=O)O

Tests used:
MCF-10A cells = type: cell-based, human; settings: 72 h
Protocol: (§1) The compounds were studied for antiproliferative activity by standard MTT dye reduction assay. Cell cultures from different cell line types (MCF-10A, MCF-7 and MDA-MB-231) were incubated with the test substances at a concentration of 15 to 2000 μM for 72 h. The antiproliferative activity expressed in % relative to the negative control was determined. The obtained results are shown on Figure 2. MCF-10A is a reliable model for normal human mammary epithelial cells, which serves as a control in experiments to determine antitumor activity. The IC50 values, found in MCF-10A, are used to calculate a selective index (SI), which assesses the potential of a substance to be used as an antitumor agent. We used the following formula to calculate the selective index SI = IC50 of MCF-10A / IC50 of tumor cells. The highest selective index with respect to MCF-7 is shown by the substances: Si3 (SI = 8.35), Si11 (SI = 2.62) and Si1 (SI = 1.24).
(§2) The antiproliferative activity testing was performed on cell cultures from several human cell lines using the standard MTT-dye reduction assay, described by Mosmann. The assay is based on the metabolism of the tetrazolium salt MTT to insoluble formazan by mitochondrial reductases. The formazan concentration can be determined spectrophotometrically. The measured absorption is an indicator of cell viability and metabolic activity. Cell lines: mammary gland type A adenocarcinoma ER+, PR+, HER2- (MCF-7), triple-negative breast cancer ER-, PR-, HER2- (MDA-MB-231) and breast, non-tumorigenic epithelial cell line (MCF-10A) were used in experiments. The cell lines were routinely grown as monolayers in 75 cm^2 tissue culture flasks under standard conditions (described above). Cells were plated at a density of 1 × 10^3 cells in 100 µL in each well of 96-well flat-bottomed microplates and allowed to adhere for 24 h before treatment with test compounds. A concentration range from 15 to 2000 μM was applied for 72 h. The formazan absorption was registered using a microplate reader at λ = 540 nm. Antiproliferative activities were expressed as IC50 values (concentrations required for 50% inhibition of cell growth), calculated using non-linear regression analysis (GraphPad Software, San Diego, CA, USA).

MDA-MB-231 cells = type: cell-based, human; settings: 72 h
Protocol: as §1, §2

MCF-7 cells = type: cell-based, human; settings: for selectivity with respect to the studied tumor cell lines (in words): MCF-7 and MDA-MB-231 versus MCF-10A
Protocol: as §1, §2

[1] = In vitro cytotoxicity testing (3T3 NRU test); type: cell-based; settings: mouse
Protocol: The newly synthesized compounds were studied for cytotoxicity by standard method (3T3 NRU-test). The cells were incubated with the test substances at a concentration of 30 to 4000 μM for 24 h. The cytotoxicity expressed, in % relative to the negative control was determined.
The cytotoxicity testing was performed as described by Borenfreund et al. and the latest modification of the validated BALB/3T3 clone A31 Neutral Red Uptake Assay (3T3 NRU test) for cytotoxicity testing. BALB/3T3, clone A31 mouse embryo cells were grown as monolayer in 75 cm^2 tissue culture flasks in DMEM high-glucose (4.5 g/L), supplemented with 10% FBS and antibiotics (Sigma-Aldrich, Schnelldorf, Germany). Cultures were maintained at 37.5 °C in a humidified atmosphere under 5% CO2. Cells were plated at a density of 1 × 10^4 cells in 100 μL culture medium in each well of 96-well flat-bottomed microplates (Biologix, Lenexa, KS, USA) and allowed to adhere for 24 h. The test compounds, dissolved in DMSO and diluted in culture medium to concentration range 30 to 4000 μM were then added and the cell cultures were incubated for additional 24 h. […] After treatment with Neutral Red medium, washing and treatment with the Ethanol/Acetic acid solution (NR Desorb), the absorption was measured on a TECAN microplate reader (TECAN, Grödig, Austria) at wavelength 540 nm.

Escherichia coli K12 407 = type: cell-based
Protocol: Antibacterial properties of the obtained new peptides and their conjugates were tested against E. coli K12 407 strain. Antibacterial activity of tested compounds was proven through appear of free zone around the loaded disk-paper by means of agar-diffusion method (Figure 3).
All newly synthesized derivatives of (KLAKLAK)2-NH2 at two concentrations 10 μM and 20 μM, were tested against facultative anaerobic gram-negative Esherichia coli NBIMCC K12 407. The strains were obtained from the culture collection of Bulgarian National Bank for Industrial Microorganisms and Cell Cultures (Sofia, Bulgaria) and were cultured in Luria-Bertani (LB) medium (Mumbai, India). The microbiological tests were performed using the agar diffusion method. The overnight pure cultures from tested strains were prepared in liquid LB-medium. A single colony was used for inoculating the liquid LB medium in order to maintain initial bacterial concentration of 1 × 10^7 cfu/mL. 100 µL of bacterial suspensions were seeded on agar plates with solid LB-medium. After 30 min, sterile paper disks 6 mm in diameter were soaked with tested samples in amount of 6 µL and placed on the agar petri dishes surface. The plates were incubated for 24 h at 37 °C. The appeared inhibition zones and their size were measured. The sterile paper disks soaked with water was used as blank. Mean values were calculated by performing the experiments in triplicates.

| SMILES | IC50 (MDA-MB-231 cells) [µM] | IC50 (MCF-7 cells; 72 h) [µM] | IC50 (MCF-10A cells) [µM] | selectivity with respect to the studied tumor cell lines (in words) (MCF-7 cells) | IC50 at 24 h [1] [µM] | IC50 (MDA-MB-231 cells; MDA-MB-231, MTT, 15 to 2000 μM, read-out: IC50 of Mean ± SD, Antiproliferative Activity, MDA-MB-231) [µM] | selective index (SI) with respect to MCF-7 (MCF-7 cells; 72 h) | activity against Escherichia coli K12 407 (in words) (Escherichia coli K12 407; 20 μM) | antibacterial effect, zones free of microbial growth (in words) (Escherichia coli K12 407; agar diffusion, E. coli K12 407) |
| --- | --- | --- | --- | --- | --- | --- | --- | --- | --- |
| CCCC[C@H](NC(=O)[C@H](CCCCN)NC(=O)/C=C/c1ccc(O)c(O)c1)C(=O)N[C@@H](C)C(=O)N[C@@H](CCCCN)C(=O)N[C@@H](CCCC)C(=O)N[C@@H](C)C(=O)N[C@@H](CCCCN)C(N)=O [Si15, Caf-KnLAKnLAK-NH2] (Caffeoyl-K[Nle]AK[Nle]AK-NH2) | 346 ± 7.91 | 140 ± 7.12 | 147 ± 7.96 | No selectivity | 1514 ± 12.2 |  |  |  |  |
| CCCC[C@H](NC(=O)[C@H](CCCCN)NC(=O)[C@H](C)NC(=O)[C@H](CCCC)NC(=O)[C@@H](N)CCCCN)C(=O)N[C@@H](C)C(=O)N[C@@H](CCCCN)C(N)=O [Si13, KnLAKnLAK-NH2] (H-K[Nle]AK[Nle]AK-NH2; N-terminus assumed) | > 2000 | 1700 ± 112 | > 2000 |  | > 4000 |  |  |  |  |
| N.N.[Cl][Pt][Cl] [Cisplatin, reference compound] |  |  |  |  |  | 1.83 ± 0.13 |  |  |  |

More lines, main results first:

| IC50 (MDA-MB-231 cells) [µM] | IC50 (MCF-7 cells; 72 h) [µM] | SMILES | IC50 (MCF-10A cells) [µM] | selectivity with respect to the studied tumor cell lines (in words) (MCF-7 cells) | IC50 at 24 h [1] [µM] | IC50 (MDA-MB-231 cells; MDA-MB-231, MTT, 15 to 2000 μM, read-out: IC50 of Mean ± SD, Antiproliferative Activity, MDA-MB-231) [µM] | selective index (SI) with respect to MCF-7 (MCF-7 cells; 72 h) | activity against Escherichia coli K12 407 (in words) (Escherichia coli K12 407; 20 μM) | antibacterial effect, zones free of microbial growth (in words) (Escherichia coli K12 407; agar diffusion, E. coli K12 407) |
| --- | --- | --- | --- | --- | --- | --- | --- | --- | --- |
| 840 ± 21.2 | 663 ± 20 | CC(C)C[C@H](NC(=O)[C@H](CCCCN)NC(=O)CCNC(=O)[C@H](CC(C)C)NC(=O)[C@H](CCCCN)NC(=O)CN1C(=O)c2cccc3cccc(c23)C1=O)C(=O)NCCC(=O)N[C@@H](CCCCN)C(N)=O [Si2, 1,8-naphthalimideG-KLβAKLβAK-NH2] ({Acetyl(1,8-naphthalimido)}-KL[βAla]KL[βAla]K-NH2) | 666 ± 20.9 | no significant SI is observed | 1430 ± 48.4 |  |  |  |  |
| > 2000 | 176 ± 4.66 | CC(C)C[C@H](NC(=O)[C@H](CCCCN)NC(=O)CCNC(=O)[C@H](CC(C)C)NC(=O)[C@@H](N)CCCCN)C(=O)NCCC(=O)N[C@@H](CCCCN)C(N)=O [Si3, KLβAKLβAK-NH2] (H-KL[βAla]KL[βAla]K-NH2; N-terminus assumed) | 1470 ± 104 | significant selective index | 2870 ± 130 |  | 8.33 |  |  |
| > 2000 | > 2000 | CC(C)C[C@H](NC(=O)[C@H](CCCCN)NC(=O)[C@H](C)NC(=O)[C@H](CC(C)C)NC(=O)[C@@H](N)CCCCN)C(=O)N[C@@H](C)C(=O)N[C@@H](CCCCN)C(N)=O [Si6, KLAKLAK-NH2] (H-KLAKLAK-NH2; N-terminus assumed) | > 2000 | do not show selectivity | > 4000 |  |  | moderate activity | clear zones free of microbial growth |
